From ChEMBL document CHEMBL1201862, “PubChem BioAssay data set” (2004)
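Interpolation was linear, between the two tested concentrations surrounding the appropriate level; five concentrations were tested over 48 hours in 96-well plates. GI50 marks 50% less growth.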 The source made the active and inactive calls. Cut-off read from the data, not from the text of the source: active = GI50 up to about 1.1 µM and inactive = higher.

Columns and labels:
Assay in all cases: inhibition of tumour cell growth, NCI panel, 48 h
MDA-MB-435 = test system: MDA-MB-435
BT-549 = test system: BT-549
NCI-H23 = test system: NCI-H23
SF-539 = test system: SF-539
Malme-3M = test system: Malme-3M
OVCAR-3 = test system: OVCAR-3
SK-MEL-5 = test system: SK-MEL-5
SF-295 = test system: SF-295
UO-31 = test system: UO-31
NCI-H522 = test system: NCI-H522
A549 = test system: A549
KM12 = test system: KM12
LOX IMVI = test system: LOX IMVI
SR = test system: SR
PC-3 = test system: PC-3
HOP-62 = test system: HOP-62
ACHN = test system: ACHN
NCI-H460 = test system: NCI-H460
EKVX = test system: EKVX
SK-OV-3 = test system: SK-OV-3
CAKI-1 = test system: CAKI-1
UACC-62 = test system: UACC-62
OVCAR-8 = test system: OVCAR-8
OVCAR-5 = test system: OVCAR-5
Hs-578T = test system: Hs-578T
SF-268 = test system: SF-268
786-0 = test system: 786-0
UACC-257 = test system: UACC-257
HOP-92 = test system: HOP-92
SNB-19 = test system: SNB-19
DU-145 = test system: DU-145
RPMI-8226 = test system: RPMI-8226
COLO 205 = test system: COLO 205
MDA-MB-231 = test system: MDA-MB-231
NCI-H226 = test system: NCI-H226
MDA-N = test system: MDA-N
SK-MEL-2 = test system: SK-MEL-2
CCRF-CEM = test system: CCRF-CEM
MOLT-4 = test system: MOLT-4
HCT-116 = test system: HCT-116
TK-10 = test system: TK-10
A498 = test system: A498
HCT-15 = test system: HCT-15
IGROV-1 = test system: IGROV-1
K562 = test system: K562
HL-60 = test system: HL-60
RXF 393 = test system: RXF 393
NCI/ADR-RES = test system: NCI/ADR-RES
M14 = test system: M14
SN12C = test system: SN12C
SK-MEL-28 = test system: SK-MEL-28
U-251 = test system: U-251
OVCAR-4 = test system: OVCAR-4
HT-29 = test system: HT-29
SW-620 = test system: SW-620
T47D = test system: T47D

**Q.** Which GI50 (MDA-MB-435) does the source give for `CSC1=NC(C(N)=O)C(N)N1C` (stereo unspecified) here?
**A.** > 100 µM (inactive)

**Q.** What about the GI50 (BT-549) of the same molecule?
**A.** > 100 µM (inactive)

**Q.** And the GI50 (NCI-H23)?
**A.** > 100 µM (inactive)

**Q.** What about the GI50 (SF-539) of the same molecule?
**A.** > 100 µM (inactive)

**Q.** And the GI50 (Malme-3M)?
**A.** > 100 µM (inactive)

**Q.** What about the GI50 (OVCAR-3) of the same molecule?
**A.** > 100 µM (inactive)

**Q.** And the GI50 (SK-MEL-5)?
**A.** > 100 µM (inactive)

**Q.** And the GI50 (SF-295)?
**A.** > 100 µM (inactive)

**Q.** What about the GI50 (UO-31) of the same molecule?
**A.** > 100 µM (inactive)

**Q.** And the GI50 (NCI-H522)?
**A.** > 100 µM (inactive)

**Q.** And the GI50 (A549)?
**A.** > 100 µM (inactive)

**Q.** What about the GI50 (KM12) of the same molecule?
**A.** > 100 µM (inactive)

**Q.** And the GI50 (LOX IMVI)?
**A.** > 100 µM (inactive)

**Q.** And the GI50 (SR)?
**A.** > 100 µM (inactive)

**Q.** And the GI50 (PC-3)?
**A.** > 100 µM (inactive)

**Q.** What about the GI50 (HOP-62) of the same molecule?
**A.** > 100 µM (inactive)

**Q.** What about the GI50 (ACHN) of the same molecule?
**A.** > 100 µM (inactive)

**Q.** What about the GI50 (NCI-H460) of the same molecule?
**A.** > 100 µM (inactive)

**Q.** What about the GI50 (EKVX) of the same molecule?
**A.** > 100 µM (inactive)

**Q.** And the GI50 (SK-OV-3)?
**A.** > 100 µM (inactive)

**Q.** And the GI50 (CAKI-1)?
**A.** > 100 µM (inactive)

**Q.** And the GI50 (UACC-62)?
**A.** > 100 µM (inactive)

**Q.** And the GI50 (OVCAR-8)?
**A.** > 100 µM (inactive)

**Q.** What about the GI50 (OVCAR-5) of the same molecule?
**A.** > 100 µM (inactive)

**Q.** And the GI50 (Hs-578T)?
**A.** > 100 µM (inactive)

**Q.** And the GI50 (SF-268)?
**A.** > 100 µM (inactive)

**Q.** What about the GI50 (786-0) of the same molecule?
**A.** > 100 µM (inactive)

**Q.** What about the GI50 (UACC-257) of the same molecule?
**A.** > 100 µM (inactive)

**Q.** What about the GI50 (HOP-92) of the same molecule?
**A.** > 100 µM (inactive)

**Q.** And the GI50 (SNB-19)?
**A.** > 100 µM (inactive)

**Q.** What about the GI50 (DU-145) of the same molecule?
**A.** > 100 µM (inactive)

**Q.** What about the GI50 (RPMI-8226) of the same molecule?
**A.** > 100 µM (inactive)

**Q.** And the GI50 (COLO 205)?
**A.** > 100 µM (inactive)

**Q.** And the GI50 (MDA-MB-231)?
**A.** 38.6 µM (inactive)

**Q.** What about the GI50 (NCI-H226) of the same molecule?
**A.** > 100 µM (inactive)

**Q.** What about the GI50 (MDA-N) of the same molecule?
**A.** > 100 µM (inactive)

**Q.** And the GI50 (SK-MEL-2)?
**A.** > 100 µM (inactive)

**Q.** What about the GI50 (CCRF-CEM) of the same molecule?
**A.** > 100 µM (inactive)

**Q.** What about the GI50 (MOLT-4) of the same molecule?
**A.** > 100 µM (inactive)

**Q.** And the GI50 (HCT-116)?
**A.** > 100 µM (inactive)

**Q.** And the GI50 (TK-10)?
**A.** > 100 µM (inactive)

**Q.** What about the GI50 (A498) of the same molecule?
**A.** > 100 µM (inactive)

**Q.** And the GI50 (HCT-15)?
**A.** > 100 µM

**Q.** What about the GI50 (IGROV-1) of the same molecule?
**A.** > 100 µM (inactive)

**Q.** What about the GI50 (K562) of the same molecule?
**A.** > 100 µM (inactive)

**Q.** And the GI50 (HL-60)?
**A.** > 100 µM (inactive)

**Q.** And the GI50 (RXF 393)?
**A.** > 100 µM (inactive)

**Q.** And the GI50 (NCI/ADR-RES)?
**A.** > 100 µM (inactive)

**Q.** What about the GI50 (M14) of the same molecule?
**A.** > 100 µM (inactive)

**Q.** What about the GI50 (SN12C) of the same molecule?
**A.** > 100 µM (inactive)

**Q.** And the GI50 (SK-MEL-28)?
**A.** > 100 µM (inactive)

**Q.** What about the GI50 (U-251) of the same molecule?
**A.** > 100 µM (inactive)

**Q.** And the GI50 (OVCAR-4)?
**A.** > 100 µM (inactive)

**Q.** What about the GI50 (HT-29) of the same molecule?
**A.** > 100 µM (inactive)

**Q.** What about the GI50 (SW-620) of the same molecule?
**A.** > 100 µM (inactive)

**Q.** What about the GI50 (T47D) of the same molecule?
**A.** > 100 µM (inactive)
